# PMC4579270, “Identification and Characterization of an Irreversible Inhibitor of CDK2” (Chemistry & Biology, 2015)
# “Also recorded” adds a separate entry of the source.
# Tests used:
# [1] = molecular target: T1, immobilized CDK2/cyclin A (Homo sapiens, UniProt P24941); test: SPR kinetics of non-covalent complex; type: binding; conditions: 1:1 model, 25 °C
# T1 construct: made in house; host or cells: Escherichia coli
# Text: To determine the kinetics of the interactions of NU6310 and NU6300 with immobilized CDK2/cyclin A, the sensor surface was exposed to five different concentrations of each inhibitor for different contact times (Figures 2A and 2B). On these relatively short time scales (compared with the experiment above), the interactions between CDK2 and either NU6300 or NU6310 appeared reversible, since the sensorgrams were well described by a simple 1:1 model and the dissociation was similar irrespective of the contact time. It enabled the estimation of the kinetic constants (kon, koff, KD) for the formation of the non-covalent complex. […] The formation of a covalent complex could not be detected on the time scales of these experiments, and the injection times could not be extended further for practical reasons.
# Figure 2 NU6300 Is a Covalent Inhibitor of CDK2 (A and B) SPR sensorgrams for the interaction between immobilized CDK2 and NU6310 and NU6300. (A) The effects of time on the interaction were evaluated by comparing the dissociation rates for the compounds injected at 10 μM for different contact times (30, 60, 120, and 240 s). Sensorgrams are aligned with respect to the start of the dissociation. (B) The determination of rate constants was based on global analysis of a set of sensorgrams recorded for a concentration series (39, 156, 625, 2,500, and 10,000 nM) of the compounds. Theoretical curves of a fitted 1:1 Langmuir interaction model (black) are overlaid on the experimental traces. (C) Phosphorylation of GST-Rb by CDK2/cyclin A. The slower-migrating band is hyperphosphorylated GST-Rb (Phospho-Rb). Time points (in minutes) are shown above. (D) Time-dependent inhibition of CDK2/cyclin A. Activity was measured using the ADP-Glo assay format against a peptide of sequence HHASPRK. Error bars indicate SD of the measurements. See also Figure S1 and Table S1.
# The interaction experiments were performed using SPR biosensor technology, with Biacore S51 and T100 instruments, CM5 biosensor chips, and standard reagents (GE Healthcare). Full details can be found in the Supplemental Experimental Procedures. […]
# CDK2 was immobilized to activated carboxylated dextran surfaces by amine coupling to give surface densities of 6000-25000 RU. All interaction experiments were performed at 25 °C in 10 mM phosphate pH 7.4, 137 mM NaCl, 3 mM KCl, with addition of 0.05 % Tween 20, 5 % (v/v) DMSO, and at a flow rate of 90 or 30 µL/min. […]
# Sensorgrams or extracted report points from reference surfaces and blank injections were subtracted from the raw data prior to data analysis, using Biacore T100 evaluation software 2.0. A 1:1 interaction model was fitted globally to sets of sensorgrams recorded with different contact times and at different inhibitor concentrations in multi-cycle experiments. Kinetic parameters were determined from sensorgrams with 30 s and 60 s contact time. Standard deviations were based on at least 4 measurement series.
# CDK2/cyclin A was mixed with a freshly prepared solution of NU6300 to achieve DMSO and inhibitor concentrations of 2% and 2 mM respectively, concentrated by ultrafiltration to a CDK2/cyclin A final concentration of circa 5 mg ml-1, and then crystallized as described (Davies et al., 2002). Briefly, crystals were grown from a mother liquor containing 0.6–0.8 M KCl, 0.9–1.2 M (NH4)2SO4, and 100 mM HEPES (pH 7.0). Sitting drops were set up with a 1:1 ratio of protein to reservoir solution in a total initial volume of 0.5 or 1.0 µl.
# Before data collection, crystals were briefly immersed in cryo-protectant (1 M sodium
# CDK2-Cyclin A = CDK2-Cyclin A (Homo sapiens, UniProt P24941); test: Kinase assay against GST-Rb after overnight incubation and dialysis; type: biochemical; design: made in house; host or cells: Escherichia coli (CDK2 co-expressed with S. cerevisiae CAK1); conditions: wild-type CDK2/cyclin A, overnight with 1 mM inhibitor, dialysed 8 h
# Protocol: To confirm the results of the ESI-MS and SPR analysis, CDK2/cyclin A was incubated with either NU6300 or NU6310, then the samples and appropriate controls were dialyzed. The resulting CDK2/cyclin A activity was analyzed in an in vitro kinase assay against a C-terminal fragment of the retinoblastoma protein Rb. After an overnight incubation in the presence of NU6300, CDK2 activity was not recovered after dialysis (Figure 2C). […] The activity of NU6300 was also characterized in an alternative kinase assay format (ADP-Glo;^, Promega) in which covalent inhibition of CDK2/cyclin A was allowed to proceed in a pre-incubation phase and was assessed in a subsequent activity assay, where enzyme and inhibitor were diluted such that the inhibitor was present at 20-fold below its IC50 value. The samples and appropriate controls were incubated for 0, 10, 30, 60, and 120 min, prior to addition of ATP and peptide substrate (sequence HHASPRK, single-letter amino acid code), to initiate the kinase reaction. […]
# CDK2/cyclin A (200 µM) was incubated overnight with 1 mM inhibitor or DMSO, and then dialysed for 8 h with regular replacement of dialysis buffer into HEPES-buffered saline (50 mM HEPES, pH 7.5, 250 mM NaCl, 0.02% MTG). […] Reactions were stopped by addition of SDS-PAGE loading buffer and analyzed by SDS-PAGE. […]
Structure (SMILES),Kd [1],koff [1],kon [1],CDK2 activity against Rb after incubation with inhibitor and dialysis (CDK2-Cyclin A)
"C=CS(=O)(=O)c1ccc(Nc2nc(OCC3CCCCC3)c3nc[nH]c3n2)cc1 [NU6300, 6-(cyclohexylmethoxy)-N-(4-(vinylsulfonyl)phenyl)-9H-purin-2-amine]",1310 ± 180 nM,0.0713 ± 0.0063 s⁻¹,54500 ± 7.2e+08 M⁻¹ s⁻¹,not recovered; also recorded: did not
"CCS(=O)(=O)c1ccc(Nc2nc(OCC3CCCCC3)c3nc[nH]c3n2)cc1 [NU6310, 6-(cyclohexylmethoxy)-N-(4-(ethylsulfonyl)phenyl)-9H-purin-2-amine]",716 ± 12 nM,0.0809 ± 0.007 s⁻¹,113000 ± 1e+09 M⁻¹ s⁻¹,could phosphorylate Rb; also recorded: recovered their activity
